Laboratory results as given in patent US20230123334A1, “AMINO LIPID COMPOUND, PREPARATION METHOD THEREFOR, AND APPLICATION THEREOF” (SHENZHEN SHENXIN BIOTECHNOLOGY CO., LTD., priority 2020, published 2023).

Test system: HEK293 cells
Assay: Preliminary screening as DNA vectors, GFP transfection of HEK293 cells
Type: cell-based
Procedure, shortened: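 Lipid + DOPE liposomes (NaOAc, pH 5.6) complexed w/ 75 ng psin-EGFP-IRES-Puro, 30 min RT; added to 3-5×10^4 HEK293/well, 37° C. Hoechst 0.2 μg/mL at 20-24 h, imaged after further 20-24 h. Efficiency = GFP+ cells / total nuclei.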

[1] = amino lipid/DOPE liposome with 75 ng plasmid DNA (psin-EGFP-IRES-Puro), number of GFP-expressing cells divided by total nuclei (Hoechst)

Row | SMILES | Absolute DNA transfection efficiency in HEK293 cells [1] [%] | Absolute DNA transfection efficiency in HEK293 cells (HEK293 cells, lipid/DOPE liposome with 75 ng plasmid DNA (psin-EGFP-IRES-Puro), number of cells expressing GFP divided by total number of nuclei (Hoechst)) [%]
1 | CCCCCCCCCCCCN(CCCCCCCCCCCC)c1nc(NCCCN(C)C)nc(SCCCCCCC)n1 [S7^2N12 D6] | 0.6 | –
2 | CCCCCCCCCCCCCCSc1nc(NCCCCCC)nc(NCCCN2CCOCC2)n1 [S14N6 D8] | 13.6 | –
3 | CCCCCCCSc1nc(NCCN2CCCC2)nc(SCCCCCC)n1 [S6S7 D3] | 1.4 | –
4 | CCCCCCCSc1nc(NCCN2CCOCC2)nc(SCCCCCC)n1 [S6S7 D2] | 1.2 | –
5 | CCCCCCCSc1nc(NCCN2CCN(C)CC2)nc(SCCCCCC)n1 [S6S7 D5] | 5.7 | –
6 | CCCCCCCCCCCCCCCCNc1nc(NCCN2CCCCC2)nc(SCCCCCCCCCCCCCC)n1 [S14N16 D4] | 1.9 | –
7 | CCCCCCCCCCCCCCCCCCSc1nc(NCCN2CCCCC2)nc(SCCCCCCC)n1 [S7S18 D4] | 8.3 | –
8 | CCCCCCCCCSc1nc(NCCCCCCC)nc(NCCCN(C)C)n1 [S9N7 D6] | 12.4 | –
9 | CCCCCCCCSc1nc(NCCCCCC)nc(NCCN(C)C)n1 [S8N6 D1] | 3.4 | –
10 | CCCCCCCCCCCCCCCCSc1nc(NCCCCCCCCCCC)nc(NCCN2CCN(C)CC2)n1 [S16N11 D5] | 9.5 | –
11 | CCCCCCCCCCCCN(CCCCCCCCCCCC)c1nc(NCCN2CCCC2)nc(SCCCCCCCCC)n1 [S9^2N12 D3] | 0.0 | –
12 | CCCCCCCCCCCSc1nc(NCCCCCCC)nc(NCCCN2CCN(C)CC2)n1 [S11N7 D9] | 16.1 | –
13 | CCCCCCCCCCCCCNc1nc(NCCCN2CCN(C)CC2)nc(SCCCCCC)n1 [S6N13 D9] | 38.3 | –
14 | CCCCCCCCCCCCCCCCSc1nc(NCCCCCCCCCCCCCCC)nc(NCCN2CCN(C)CC2)n1 [S16N15 D5] | 0.3 | –
15 | CCCCCCCCCCCCCCSc1nc(NCC2CCN(C)CC2)nc(SCCCCCC)n1 [S6S14 D10] | 53.3 | –
16 | CCCCCCCCCSc1nc(NCCN2CCOCC2)nc(SCCCCCCCC)n1 [S8S9 D2] | 37.0 | –
17 | CCCCCCCCCCCNc1nc(NCCCN2CCOCC2)nc(SCCCCCCCC)n1 [S8N11 D8] | 13.7 | –
18 | CCCCCCCCCCCCN(CCCCCCCCCCCC)c1nc(NCC2CCN(C)CC2)nc(SCCCCCCCCC)n1 [S9^2N12 D10] | 1.1 | –
19 | CCCCCCCCCCCCCNc1nc(NCCN(CC)CC)nc(SCCCCCC)n1 [S6N13 D7] | 2.0 | –
20 | CCCCCCCCCCCCCCCCSc1nc(NCCCCCC)nc(NCCN(C)C)n1 [S16N6 D1] | 8.0 | –
21 | CCCCCCCCCCCCCCCCNc1nc(NCCN(CC)CC)nc(SCCCCCCCCCCCCCC)n1 [S14N16 D7] | 1.3 | –
22 | CCCCCCCCCCCCCCCCCCSc1nc(NCCCCCCCCC)nc(NCCN2CCCC2)n1 [S18N9 D3] | 20.4 | –
23 | CCCCCCCCSc1nc(NCCCCCC)nc(NCCN2CCCC2)n1 [S8N6 D3] | 3.2 | –
24 | CCCCCCCCCCCCCNc1nc(NCCN2CCN(C)CC2)nc(SCCCCCCC)n1 [S7N13 D5] | 23.3 | –

Row | SMILES | Absolute DNA transfection efficiency in HEK293 cells [1] [%] | Absolute DNA transfection efficiency in HEK293 cells (HEK293 cells, lipid/DOPE liposome with 75 ng plasmid DNA (psin-EGFP-IRES-Puro), number of cells expressing GFP divided by total number of nuclei (Hoechst)) [%]
25 | CCCCCCCCCCCCCCCCCCSc1nc(NCCCCCCCC)nc(NCCN(CC)CC)n1 [S18N8 D7] | 6.7 | –
26 | CCCCCCCCCCCCCCCSc1nc(NCCCCCCCCCCC)nc(NCCN2CCCC2)n1 [S15N11 D3] | 20.9 | –
27 | CCCCCCCCCCSc1nc(NCCCCCCCC)nc(NCCN2CCCC2)n1 [S10N8 D3] | 3.9 | –
28 | CCCCCCCCCCCCCCCNc1nc(NCCCN2CCN(C)CC2)nc(SCCCCCC)n1 [S6N15 D9] | 28.4 | –
29 | CCCCCCCCCCCCCCCCNc1nc(NCCN(C)C)nc(SCCCCCCCCCCCC)n1 [S12N16 D1] | 0.5 | –
30 | CCCCCCCCCCCCSc1nc(NCCN2CCCCC2)nc(SCCCCCC)n1 [S6S12 D4] | 3.0 | –
31 | CCCCCCCCCCCCCCSc1nc(NCC2CCN(C)CC2)nc(N(CCCCCCCCCCCC)CCCCCCCCCCCC)n1 [S14^2N12 D10] | 0.0 | –
32 | CCCCCCCCCSc1nc(NCCCCCCCC)nc(NCCN(CC)CC)n1 [S9N8 D7] | 15.7 | –
33 | CCCCCCCCCCCCCCSc1nc(NCCN2CCOCC2)nc(SCCCCCCC)n1 [S7S14 D2] | 15.9 | –
34 | CCCCCCCCCCCCCCCSc1nc(NCCCCCCC)nc(NCCN2CCCCC2)n1 [S15N7 D4] | 8.1 | –
35 | CCCCCCCCCCCCCCCCCCNc1nc(NCCN(C)C)nc(SCCCCCCCCCCCCCC)n1 [S14N18 D1] | 0.9 | –
36 | CCCCCCCCCCCCCCCNc1nc(NCCCN(C)C)nc(SCCCCCCCCCCCC)n1 [S12N15 D6] | 0.9 | –
37 | CCCCCCCCCCSc1nc(NCCCN2CCN(C)CC2)nc(SCCCCCC)n1 [S6S10 D9] | 7.9 | –
38 | CCCCCCCCCCCCNc1nc(NCCCN2CCN(C)CC2)nc(SCCCCCCC)n1 [S7N12 D9] | 46.4 | –
39 | CCCCCCCCCCCCCCCCNc1nc(NCCCN(C)C)nc(SCCCCCCCCCC)n1 [S10N16 D6] | 13.6 | –
40 | CCCCCCCCCCCCCCCSc1nc(NCCCCCCCC)nc(NCCCN2CCN(C)CC2)n1 [S15N8 D9] | 11.6 | –
41 | CCCCCCCCNc1nc(NCCN(C)C)nc(SCCCCCCC)n1 [S7N8 D1] | 15.6 | –
42 | CCCCCCCCCCCCCCCSc1nc(NCCCCCC)nc(NCCN2CCCC2)n1 [S15N6 D3] | 32.4 | –
43 | CCCCCCCCCCCCCCCCNc1nc(NCCN2CCOCC2)nc(SCCCCCCCCCC)n1 [S10N16 D2] | 1.2 | –
44 | CCCCCCCCCCCCCCCCCCNc1nc(NCCN2CCN(C)CC2)nc(SCCCCCCCCCCCCCCCCCC)n1 [S18N18 D5] | 0.0 | –
45 | CCCCCCCCCCSc1nc(NCCCCCCC)nc(NCCCN(C)C)n1 [S10N7 D6] | 6.2 | –
46 | CCCCCCCCCSc1nc(NCCN2CCN(C)CC2)nc(SCCCCCCCC)n1 [S8S9 D5] | 5.8 | –
47 | CCCCCCCCCCCCN(CCCCCCCCCCCC)c1nc(NCCN2CCOCC2)nc(SCCCCCCCCC)n1 [S9^2N12 D2] | 0.0 | –
48 | CCCCCCCCCCCCCCCNc1nc(NCCN2CCCC2)nc(SCCCCCC)n1 [S6N15 D3] | 15.9 | –

Row | SMILES | Absolute DNA transfection efficiency in HEK293 cells [1] [%] | Absolute DNA transfection efficiency in HEK293 cells (HEK293 cells, lipid/DOPE liposome with 75 ng plasmid DNA (psin-EGFP-IRES-Puro), number of cells expressing GFP divided by total number of nuclei (Hoechst)) [%]
49 | CCCCCCCSc1nc(NCC2CCN(C)CC2)nc(SCCCCCCC)n1 [S7S7 D10] | 5.5 | –
50 | CCCCCCCCCSc1nc(NCCN(C)C)nc(SCCCCCCCC)n1 [S8S9 D1] | 15.6 | –
51 | CCCCCCCCCCCCSc1nc(NCCN2CCCC2)nc(SCCCCCCCC)n1 [S8S12 D3] | 10.9 | –
52 | CCCCCCCCCCCCCNc1nc(NCCN2CCCC2)nc(SCCCCCCCCCC)n1 [S10N13 D3] | 7.7 | –
53 | CCCCCCCCCCCCNc1nc(NCCN(CC)CC)nc(SCCCCCCC)n1 [S7N12 D7] | 5.5 | –
54 | CCCCCCCCCCCCCCCCNc1nc(NCCCN(C)C)nc(SCCCCCCCCCCCCCC)n1 [S14N16 D6] | 0.8 | –
55 | CCCCCCCCCCCCCCCSc1nc(NCCCCCCCCCCC)nc(NCCN(C)C)n1 [S15N11 D1] | 12.9 | –
56 | CCCCCCCNc1nc(NCCCN(C)C)nc(SCCCCCCC)n1 [S7N7 D6] | 33.5 | –
57 | CCCCCCCCCCCCCCCCCCNc1nc(NCC2CCN(C)CC2)nc(SCCCCCCCC)n1 [S8N18 D10] | 9.6 | –
58 | CCCCCCCCSc1nc(NCCCN2CCOCC2)nc(SCCCCCC)n1 [S6S8 D8] | 0.6 | –
59 | CCCCCCCCCCCCSc1nc(NCC2CCN(C)CC2)nc(SCCCCCCCC)n1 [S8S12 D10] | 23.5 | –
60 | CCCCCCCCCCCCCCCSc1nc(NCCCCCCC)nc(NCCN2CCCC2)n1 [S15N7 D3] | 19.7 | –
61 | CCCCCCCCCCCCN(CCCCCCCCCCCC)c1nc(NCCCCCCCCCCC)nc(NCC2CCN(C)CC2)n1 [Compound N112N12D10] | – | 0.7
62 | CCCCCCCCCCCCCCCCCCNc1nc(NCCCN(C)C)nc(SCCCCCCCCCCC)n1 [S11N18 D6] | 21.7 | –
63 | CCCCCCCCCCCCCCCCCCNc1nc(NCCCN(C)C)nc(SCCCCCCCCCCCCCC)n1 [S14N18 D6] | 0.9 | –
64 | CCCCCCCCCCCCCCSc1nc(NCCCCCCCCCCCC)nc(NCCN(CC)CC)n1 [S14N12 D7] | 1.1 | –
65 | CCCCCCCCCCCCCCCSc1nc(NCCCCCCCCCCCC)nc(NCCN(CC)CC)n1 [S15N12 D7] | 5.9 | –
66 | CCCCCCCCCCCCCCSc1nc(NCCCCCCCC)nc(NCCN(CC)CC)n1 [S14N8 D7] | 1.6 | –
67 | CCCCCCCCCCCCCCCSc1nc(NCCCCCCCC)nc(NCCCN(C)C)n1 [S15N8 D6] | 23.9 | –
68 | CCCCCCCCCCCCCNc1nc(NCCN(CC)CC)nc(SCCCCCCC)n1 [S7N13 D7] | 3.1 | –
69 | CCCCCCCCCCSc1nc(NCCCCCCC)nc(NCCN2CCOCC2)n1 [S10N7 D2] | 2.4 | –
70 | CCCCCCCCCCCCCCCNc1nc(NCCN2CCCC2)nc(SCCCCCCC)n1 [S7N15 D3] | 31.4 | –
71 | CCCCCCCCCCSc1nc(NCCCCCC)nc(NCCCN2CCN(C)CC2)n1 [S10N6 D9] | 5.5 | –
72 | CCCCCCCCCCCCCCSc1nc(NCCCCCCCCCCCC)nc(NCCCN2CCOCC2)n1 [S14N12 D8] | 2.1 | –
